{"source": "patent US12110510B2", "about": "“Functional cortico-spinal-muscle assembled spheroids” (The Board of Trustees of the Leland Stanford Junior …, priority 2018, dated 2024)", "key": {"hSkM": {"system": "hSkM", "assay": "hSkM calcium imaging (Cal-590 AM) in 2D co-culture with hSpS", "type": "cell-based, human", "conditions": "curare 100 μM; 2D hSkM co-cultured with hSpS; 2-minute period", "protocol": "hSkM calcium imaging. For calcium imaging co-culture experiments, hSkM were plated on 24-well plates as described above and differentiated with Skeletal Muscle Cell Differentiation Medium. After 6-7 days of exposure to differentiation medium, hSkM were co-cultured with hSpS or hCS. […] One hSpS or hCS were placed per well. hSkM-spheroid co-cultures were left undisturbed for two days, and half medium was carefully replaced every other day thereafter. Calcium imaging was performed after 6-7 days of co-culture. Cultures were incubated with Cal-590 AM (10 μM, AAT Bioquest) and PowerLoad (1:100, Invitrogen) for 30 minutes at 37° C., washed once for 10 minutes with full medium and then imaged. A Leica SP8 confocal microscope with a resonant scanner was used for imaging. Spontaneous calcium activity was recorded for 2 min (10 frames per second) in 6-9 fields per well, and for each field the distance from the spheroid was measured.\nCalcium imaging. Calcium imaging data was processed using ImageJ (Fiji) and custom MATLAB routines. […] A total number of 798 (hSkM condition), 652 (hCS+hSkM condition), 1006 (hSpS+hSkM condition) and 727 (hSpS+hSkM+curare condition) hSkM fibers were analyzed. Following ROI registration, raw time-series movies were transformed to relative changes in fluorescence: dF/F(t)=(F(t)−F0)/F0, where F0 represented the 5th percentile value of the time series of each ROI. […]"}, "hCS-hSC-hSkM assembloid": {"system": "hCS-hSC-hSkM assembloid", "assay": "Glutamate uncaging in hCS-hSC-hSkM assembled spheroids (Example 1), hSkM contraction", "conditions": "tubocurarine 100 μM", "description": "For cortico-spinal-muscle assembled spheroids, hCS-hSC assembled spheroids were placed on tissue culture inserts and positioned so that hSC was in contact with the 3D hSkM constructs. Media was changed every other day.\nThe FRAP module of the Leica SP8 confocal microscope was used to uncage glutamate using UV light."}, "[1]": {"system": "hCS-hSpS-hSkM assembloids", "assay": "Glutamate uncaging in hCS-hSpS-hSkM assembloids, muscle contraction", "type": "cell-based, human", "protocol": "(§1) Generation of hSpS-hSkM or hCS-hSpS-hSkM assembloids. To generate neural-muscle assembloids, 3D hSkM that had been in differentiation medium for at least 10 days (see above) were removed from the silicone wells and placed on top of cell culture inserts (0.4 μm pore size; 353090, Corning) that were positioned in 6-well plates containing 2 ml of DMEM/F12 medium supplemented with 1% Non-Essential Amino Acids (NEAA, Life Technologies), 1% Insulin-Transferrin-Selenium (ITS, Life Technologies), 1% penicillin and streptomycin (Life Technologies), L-Ascorbic Acid (AA; 200 nM, Wako) and cAMP (50 nM, Sigma-Aldrich). Next, spheroids (either hSpS or hCS) were placed on the inserts containing 3D hSkM and arranged so that they were in contact with one another and were allowed to interact.\n(§2) Glutamate uncaging and optogenetic stimulation. Intact assembloids were imaged under environmentally controlled conditions (37° C., 5% CO2) using a 5× objective in a confocal microscope (Leica SP8). Assembloids, still in transwells, were incubated in the environmentally controlled chamber for 20-30 minutes before imaging. […] At a frame rate of 14.7 frames/sec, a typical stimulation experiment consisted of 500 frames acquired during pre-stimulation, 5 frames of UV stimulation (in specified region of interest, ROI) and 200 frames acquired during poststimulation. For optogenetic stimulation, five pulses of light (625 nm, 68 ms in duration each and ˜68 seconds apart) were delivered using an optical fiber-coupled LED (400 μmdiameter, 13.2 mW; Thorlabs) that was directed towards the hCS."}, "[2]": {"system": "hSpS-limb assembloids (mouse limb buds)", "assay": "Contraction of hSpS-limb assembloids", "type": "cell-based", "conditions": "curare 100 μM; 14 days after fusion", "protocol": "Co-culture of mouse limb and spheroids. For mouse co-culture experiments, timed-pregnant females were sacrificed at E11.5, embryos were collected, and limb buds dissected (both forelimbs and hindlimbs were used for this experiment). Limbs and spheroids (at D25) were then assembled together by placing them in close proximity in a 1.5 ml microcentrifuge tube for 3 days in an incubator. One limb and one spheroid were placed per tube. On day 2 medium was carefully changed. Neural medium supplemented with N−2 supplement (Life Technologies, 17502048) was used. After assembly, mouse-spheroid cultures were placed in 24-well ultralow-attachment plates (Corning), and medium was changed every other day. For contraction quantification, assembloids were visualized using brightfield illumination in an EVOS FL Cell Imaging System (Life Technologies), and they were deemed to be contracting if they moved within a time-window of 30 seconds. Approval for mouse experiments was obtained from the Stanford University's Administrative Panel on Laboratory Animal Care (APLAC)."}, "hSpS [3]": {"system": "hSpS", "assay": "Combinatorial growth factor matrix, gene expression of 16 markers at day 20", "type": "cell-based, human", "text": "To establish hSpS differentiation conditions, we designed a combinatorial approach, where we used FGF-2, RA, and WNT and SHH modulators at varying concentrations following neural ectoderm specification of early spheroids. […] Briefly, hiPS cell colonies were lifted from plates using the enzyme dispase, moved to ultra-low attachment plates to form spheroids and exposed to dual SMAD inhibition as we have previously described. Starting on day 4 of in vitro differentiation, neural spheroids were exposed to 3 μM of the WNT activator CHIR-99021, and to 20 ng/ml EGF from day 6 onward. Neural spheroids also received a combination of RA (0.01 or 0.1 μM) and FGF-2 (0, 10 or 20 ng/ml) from day 6, and the SHH activator smoothened agonist (SAG; 0, 0.01, 0.1 or 1 μM) from day 11.\nFor the combinatorial growth factor matrix, small molecules were added on the same days as described above, and the concentrations for dual SMAD inhibitors, CHIR 99021 and EGF were the same as above. From day 7, the neural medium was changed every other day until day 20, when spheres were collected. No DAPT was added for this experiment.\nReal-time quantitative PCR (qPCR). For qPCR analysis of spheroids, at least 2-3 spheroids were pooled per sample. mRNA was isolated using the RNeasy Mini kit and RNase-Free DNase set (Qiagen), and template cDNA was prepared by reverse transcription using the SuperScript Ill First-Strand Synthesis SuperMix for qRT-PCR (Life Technologies). qPCR was performed using Sybr Green (Roche) on a ViiA7 machine (Applied Biosystems, Life Technologies)."}, "[4]": {"system": "hCS-hSpS-hSkM assembloids", "assay": "Optogenetic stimulation of hCS in hCS-hSpS-hSkM assembloids, muscle displacement", "type": "cell-based, human", "conditions": "NBQX (50 μM) and APV (50 μM) added together; Chrim-expressing hCS, 625 nm", "text": "Glutamate uncaging and optogenetic stimulation.\nContraction analysis. […] The mean covariance per field was plotted."}, "hSC [5]": {"system": "hSC", "assay": "Gene expression analysis (qPCR) of neuronal subtype markers in hSC or hSC+D", "type": "cell-based, human", "conditions": "DAPT+ condition (2.5 μM) versus hSC; day 30", "protocol": "(§3) From day 4 in suspension, cultures were supplemented with the GSK-3 inhibitor CHIR 99021 (3 μM). On day 6, spheroids were transferred to neural medium containing neurobasal-A, B-27 supplement without vitamin A, GlutaMax (1:100), penicillin and streptomycin, and supplemented with retinoic acid (RA, 100 nM), EGF (20 ng/ml) and FGF-2 (10 ng/ml). On day 11 of differentiation spheroids were supplemented with the SHH pathway agonist Smoothened Agonist (SAG, 100 nM), in addition to the compounds described above. From day 7 onwards, media was changed every other day. For the hSC+D condition, spheroids received the gamma-secretase inhibitor DAPT (2.5 μM) on days 19, 21 and 23. From day 19, once the initial fate specification stage is finalized, hSCs were transferred to neural medium containing neurobasal-A, B-27 supplement without vitamin A, N−2 supplement, GlutaMax (1:100), penicillin and streptomycin (1:100), and supplemented with BDNF (20 ng/ml), IGF (10 ng/ml), L-Ascorbic Acid (AA, 200 nM) and cAMP (62.5 nM)."}, "hSC [6]": {"system": "hSC", "assay": "Immunocytochemistry of hSC cytoarchitecture", "type": "cell-based, human", "conditions": "DAPT+ hSC condition; day 45", "protocol": "as §3"}, "hSpS [7]": {"system": "hSpS", "assay": "Single-cell gene expression of hSpS with or without DAPT (BD Rhapsody)", "type": "cell-based, human", "conditions": "hSpS differentiated in the presence of DAPT (2.5 μM, days 19, 21, 23) versus hSpS(−)DAPT; day 45", "protocol": "To generate hSpS, hiPS cell medium was supplemented with dual SMAD inhibitors until day 5 and the WNT activator CHIR 99021 (3 μM, Selleckchem) from day 4 to day 18. On day 6, spheroids were transferred to neural medium supplemented with RA (0.1 μM, Sigma-Aldrich), EGF (20 ng ml-1; R&D Systems) and FGF-2 (10 ng ml-1; R&D Systems), with addition of the SHH modulator smoothened agonist (SAG, 0.1 μM, Millipore) from day 11. From day 7, the medium was changed every other day. […] For hSpS, the Notch inhibitor DAPT (2.5 μM, STEMCELL technologies) was added on days 19, 21 and 23. From day 43 onwards, the medium was changed every four to five days.\nSingle-cell gene expression (BD Rhapsody system). […] Cell labels and molecular indices were identified, and gene identity was determined by alignment against the gencode comprehensive hg19 reference. […] Gene expression profiles of 4,175 and 3,173 cells were recovered for hSpS with or without DAPT, respectively, with an average number of reads of ˜17,000, ˜2,400 molecules and ˜1,400 number of genes detected per cell with average molecular index coverage (that is, the number of times a molecule was sequenced) of 4.8. […]"}, "hSpS-hSkM assembloids": {"system": "hSpS-hSkM assembloids", "conditions": "405 nm, in the presence of MNI-caged glutamate (3.3 mM)", "protocol": "as §1\nas §2, with “For optogenetic stimulation, five pulses of light (625 nm, 68 ms in duration each and ˜68 seconds apart) were delivered using an optical fiber-coupled LED (400 μmdiameter, 13.2 mW; Thorlabs) that was directed towards the hCS.” left out"}, "hCS-hSkM assembloid": {"system": "hCS-hSkM assembloid", "conditions": "hCS assembled with hSkM, no hSpS", "protocol": "as §1\nas §2, with “For optogenetic stimulation, five pulses of light (625 nm, 68 ms in duration each and ˜68 seconds apart) were delivered using an optical fiber-coupled LED (400 μmdiameter, 13.2 mW; Thorlabs) that was directed towards the hCS.” left out"}}, "note": "Entries after “also recorded” stand apart in the source; their conditions may differ.", "data": [{"compound": "COc1cc2c3cc1Oc1cc(ccc1O)C[C@@H]1c4c(cc(OC)c(O)c4Oc4ccc(cc4)C[C@@H]3N(C)CC2)CC[N+]1(C)C", "note": "[curare, (+)-tubocurarine chloride pentahydrate]", "values": [{"measurement": "Increase in proportion of active hSkM (spontaneous calcium activity) in hSpS-hSkM", "setting": "hSkM", "value": "blocked"}, {"measurement": "hSkM contraction after glutamate uncaging on hSC", "setting": "hCS-hSC-hSkM assembloid", "value": "blocked"}, {"measurement": "Muscle contraction upon glutamate uncaging in hCS", "setting": "[1]; 100 μm curare", "value": "blocked; also recorded: stops"}, {"measurement": "Contraction activity in hSpS-limb assembloids", "setting": "[2]", "value": "completely blocked"}]}, {"compound": "CNC1CCC(N(Cc2cccc(-c3ccncc3)c2)C(=O)c2sc3ccccc3c2Cl)CC1", "note": "(centres unmarked) [SAG]", "values": [{"measurement": "Expression of ventral progenitor marker genes OLIG2, NKX6-1, FOXA2 and post-mitotic markers CHX10 and ISL1", "setting": "hSpS [3]; high SAG exposure", "value": "higher expression"}]}, {"compound": "NBQX", "values": [{"measurement": "Light induced responses (muscle displacement/contraction) upon hCS optogenetic stimulation", "setting": "[4]", "value": "completely abolished"}]}, {"compound": "N[C@@H](CCCP(=O)(O)O)C(=O)O", "note": "[APV]", "values": [{"measurement": "Light induced responses (muscle displacement/contraction) upon hCS optogenetic stimulation", "setting": "[4]", "value": "completely abolished"}]}, {"compound": "FGF-2: growth factor FGF-2 (R&D Systems)", "values": [{"measurement": "Rostro-caudal fate (HOXA2 expression pattern)", "setting": "hSpS [3]; high levels of RA and low levels of FGF-2", "value": "more rostral fates"}, {"measurement": "Rostro-caudal fate (HOXC9 expression)", "setting": "hSpS [3]; low levels of RA and high levels of FGF-2", "value": "more caudal fates"}]}, {"compound": "C[C@H](NC(=O)Cc1cc(F)cc(F)c1)C(=O)N[C@H](C(=O)OC(C)(C)C)c1ccccc1", "note": "[DAPT]", "values": [{"measurement": "Expression of some interneuron markers (GATA3, EN1, EVX1)", "setting": "hSC [5]", "value": "lower expression"}, {"measurement": "Expression of the MN markers ISL1 and HB9", "setting": "hSC [5]", "value": "higher expression"}, {"measurement": "Cytoarchitecture of hSC (position of cell bodies and axons)", "setting": "hSC [6]", "value": "cell bodies were found on the inside of the spheroid, while axons were found on the outside of hSC"}, {"measurement": "Increase in the proportion of motor neurons", "setting": "hSpS [7]", "value": "approximately three-fold"}]}, {"compound": "COc1ccc([N+](=O)[O-])c2c1CCN2C(=O)CC[C@H](N)C(=O)O", "note": "[MNI-caged glutamate, MNI-caged-L-glutamate]", "values": [{"measurement": "hSkM contraction upon photostimulation of hSpS", "setting": "hSpS-hSkM assembloids", "value": "resulted in hSkM contraction"}, {"measurement": "Response to glutamate uncaging of hCS", "setting": "hCS-hSkM assembloid", "value": "did not elicit a response"}, {"measurement": "Muscle contraction upon uncaging in hCS", "setting": "[1]; 405 nm uncaging on hCS", "value": "robust muscle contraction"}, {"measurement": "hSkM contraction upon stimulation of hSpS", "setting": "[1]; 405 nm uncaging on hSpS", "value": "coupled with hSkM contraction"}]}]}
